Results from US8865897B2, “Crystal modifications-3-(1H-indol-3-yl)-4- [4-methyl-piperazin-1-yl)-quinazolin-4-yl] -pyrrole-2, 5-D ione” (Novartis AG, priority 2006, dated 2014).
Like-named read-outs stand apart in the source and are kept apart here.

For `CC(=O)O.CN1CCN(c2nc(C3=C(c4c[nH]c5ccccc45)C(=O)NC3=O)c3ccccc3n2)CC1` [Form B, 3-(1.H.-indol-3-yl)-4-[2-(4-methyl-piperazin-1-yl)-quinazolin-4-yl]-pyrrole-2,5-dione acetate], the “Moisture Sorption at 25°” value (Relative humidity 45 %) was 0.4, the “Moisture Sorption at 25°” value (Relative humidity 55 %) was 0.5 and the “Moisture Sorption at 25°” value (Relative humidity 75 %) was 0.6. For the same molecule, the “Moisture Sorption at 25°” value (Relative humidity 85 %) was 0.7, the “Moisture Sorption at 25°” value (Relative humidity 95 %) was 0.6 and the “XRPD pattern after DVS” value (after DVS moisture sorption at 25°) was “no change”. It also gave a maximum water uptake (at 80% r.h.) of 0.7%.
